Results published in US8507448B2, “Human CD154-binding synthetic peptide and uses thereof” (Fresenius Medical Care Deutschland G.m.b.H., priority 2007, dated 2013).
Positions of bridges follow the written chain, without caps; N, C: chain ends. Residues, ends and D or L forms follow the SMILES beside them. No end group written: not given here.

Tests used:
[1] = test system: human platelets; test: Platelet aggregation assay (aggregometer); assay type: cell-based
Experimental: Platelet aggregation was measured with an aggregometer, as the increase in light transmission compared to the control. Priming of human platelets with the anti-human CD154 antibody in combination with rhsCD154 increases platelet aggregation upon stimulation with ADP 0.5 μM.
Finally, one of the major advantages of peptide 4.10 is its lack of reactivity towards human platelets. It is know that in the past, a number of clinical trials carried out to test promising anti-CD154 monoclonal antibodies were suddenly discontinued due to dramatic prothrombotic side effects (Kelsoe G. et al, J. Clin. Invest. 2003). The hypothesis is that the anti-CD154 antibodies had triggered a cross-reaction on the surface of human platelets expressing the receptor for the Fc immunoglobulin fraction (FcR) and, after activation, the CD154 molecule. Thus, the inventors tested the effect of peptide 4.10 on platelets, by a platelet aggregation assay. Such experiments were carried out by the use of a thermostatic aggregometer, equipped with a magnetic stirrer and a real time optical density meter. Platelet aggregation was evaluated as the change in optical density versus the reference sample (blank). The experiments were carried out on platelets extracted from peripheral whole blood of healthy donors collected in tubes containing 5 U/ml heparin. In particular, the platelet enriched plasma (PRP), was obtained by whole blood centrifugation at 900 rpm for 20 minutes, while the platelet poor plasma (PPP), used as the reference sample, was obtained collecting the supernatant after another centrifugation at 3000 rpm for 10 minutes. […] Similar results were obtained inducing platelet aggregation with 0.3 U/ml thrombin.

[2] = target: T1, human CD154 expressed on the surface of J558L cells (Homo sapiens, UniProt P29965); test: Binding of -His6-tagged peptides to J558L CD154+ cells by flow cytometry; details: -His6 peptides 60 μM, 30 minutes at room temperature
T1 construct: expressed in transfected cells; host or cells: J558L murine myeloma cell line transfected with human CD154
T1 sequence (P29965 1-261): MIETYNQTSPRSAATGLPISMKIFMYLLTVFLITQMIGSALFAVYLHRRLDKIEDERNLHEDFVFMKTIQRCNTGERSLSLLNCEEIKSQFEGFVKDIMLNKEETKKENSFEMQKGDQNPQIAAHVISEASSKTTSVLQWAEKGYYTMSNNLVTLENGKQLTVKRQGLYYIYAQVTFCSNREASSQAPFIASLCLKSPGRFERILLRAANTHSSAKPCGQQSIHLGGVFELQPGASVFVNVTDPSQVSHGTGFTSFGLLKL
Experimental: FIG. 2 represents the binding of the seven peptides obtained from the human CD154-binding clones and tagged with a 6 histidines tail (-His6) to the J558L CD154^+ cells. […] The cells were incubated with each of the -His6-tagged peptides and then with a phycoerythrin-conjugated secondary antibody specific for the -His6 tail. The dotted histogram is the isotopic control, whilst the black line is the binding intensity of the CD154-specific peptides [4.2=4.3=CPSGHTKAC (SEQ ID NO: 1), 4.4=CGTHSSRIC (SEQ ID NO: 2), 4.6=CLGTQNKEC (SEQ ID NO: 3), 4.7=4.12=CTPGKPHSC (SEQ ID NO: 4), 4.8=CKAASANIC (SEQ ID NO: 5), 4.10=CLPTRHMAC (SEQ ID NO: 6) and 4.11=CLSAVHNMC (SEQ ID NO: 7)]. For each experimental condition, 10,000 events were analyzed and the values are the mean and standard deviation of 3 different experiments.
(§1) The peptides were synthesized and conjugated with biotin (-bio) or with a 6-histidine tail (-his6) so as to enable in vitro and in vivo localization. […] Furthermore, a competition assay between the peptides and an anti-human CD154 fluorescein-conjugated antibody (Serotec) specifically recognizing the active site of CD154 was carried out. The J558L cells were incubated with the his6-peptides for 30 minutes at room temperature and then with anti-human CD154 fluorescein-conjugated antibody for another 30 minutes at room temperature. […] In order to identify the amino acid residues of the amino acid sequence of peptide 4.10 which are essential to the binding to CD154, three different peptides were synthesized, each one carrying a point mutation, which amino acid sequences differ from that of peptide 4.10 by replacement of the amino acid residues at positions 4, 5, 6, respectively, with one alanine residue.
The mutated peptides were not capable of recognizing human CD154 expressed at the surface of J558L cells (data not shown).
Similar results were obtained with the four modified peptides 4.101, 4.102, 4.103 e 4.104 having the amino acid sequences illustrated in table II.

[3] = test system: control J558 cells (CD154-negative); test: Binding to control CD154-negative J558 cells by flow cytometry; parameters: species or system murine; details: -His6 peptides
[4] = target: T2, active site of human CD154 (Homo sapiens, UniProt P29965); test: Competition with anti-human CD154 fluorescein-conjugated antibody on J558L cells; assay type: binding; details: -His6 peptides 30 minutes at room temperature, then antibody
T2 construct: expressed in transfected cells; host or cells: J558L murine myeloma cell line transfected with human CD154
T2 sequence (P29965 1-261): T1 sequence (P29965 1-261)
Experimental: The murine myeloma cells transfected with human CD154, J558L, were incubated with each of the seven anti-CD154 peptides tagged with a 6 histidines tail (-His6), and then with the anti-CD154 fluorescein-conjugated antibody. The ability of the peptides to compete with the anti-CD154 antibody for the binding to the CD154 molecule expressed on the surface of the J558L cells was evaluated by flow cytometry, as the reduction in the fluorescence intensity compared to the positive control represented by cells incubated with the anti-human CD154 fluorescein-conjugated antibody alone. […] The amino acid sequence of the control peptide differs from that of peptide 4.10 in that an arginine residue is replaced with an alanine residue at amino acid position 5.
as §1

[5] = test system: CD40 stimulation of peripheral B cells by rhsCD154; test: rhsCD154-induced B cell activation (CD80 and CD86 membrane expression); assay type: cell-based, human
Experimental: The histograms of 4A show the effect of the anti-CD154 peptides and the control peptide 4.10-ala, on the activation B cells induced by stimulation with a soluble recombinant human CD154 molecule (rhsCD154). B cells were stimulated for 48 hours with rhsCD154 in the absence and in the presence of a blocking anti-human CD154 antibody or one of the seven selected peptides. Peripheral B cell activation was evaluated by flow cytometry, as the membrane expression of the co-stimulatory molecules CD80 and CD86. […] On the contrary, the activation is prevented when rhsCD154 is used in combination with a blocking anti-human CD154 antibody or with peptide 4.10 (SEQ ID NO: 6).
B cells are known to constitutively express the CD40 molecule on the cells membrane (van Kooten C. et al, J. Leukoc. Biol. 2000). Stimulation of CD40 by CD154-expressing activated T cells, results in B cells activation, proliferation and isotype switching. The inventors employed B cells isolated from whole peripheral blood of healthy donors by gradient-Ficoll centrifugation and immunomagnetical separation (MACS systems—Milteniy). The quiescent B cells thereby obtained, were then stimulated with a soluble form of human recombinant CD154 (rhsCD154) to induce activation and expression of the co-stimulatory molecules CD80 (B7-1) and CD86 (B7-2) on the cell membrane. A drastic increase in membrane expression of CD80 and CD86 on the cell surface of peripheral B cells, after stimulation for 48 hours with rhsCD154 (100 ng/ml) was observed. […] In contrast, pre-incubation for 15 minutes at 37° C. of rhsCD154 (100 ng/ml) with peptide 4.10 (SEQ. ID NO: 6), prior to lymphocyte stimulation, blocked B cells stimulation and the related expression of CD80 and CD86. […] The results are the mean±standard deviation of five different experiments. Similar results were also obtained with B cells isolated from human spleen fragments. […] These experiments were carried out on […] naive B cells, obtained from peripheral blood by negative selection, by depletion of mature lymphocytes from the B cell pool by immunomagnetic separation (MACS Systems Milteniy).

[6] = test system: HUVEC; test: In vitro angiogenesis: cell cord formation of HUVECs on Matrigel; assay type: cell-based, human; details: pre-incubated with rhsCD154 100 ng/ml for 15 minutes at 37° C.; 4 hours
From the text: FIGS. 7B-F show representative images of cell cord formation ability on Matrigel under the various experimental conditions mentioned above (B=unstimulated control; C=rhsCD154; D=rhsCD154+ 4.10 peptide; E=rhsCD154+ 4.10-ala peptide; F=rhsCD154+ blocking anti-CD154 antibody). Peptide 4.10 of the invention (SEQ ID NO: 6), contrary to control peptide 4.10-ala (SEQ ID NO: 8), inhibits the rhsCD154-induced ability of the endothelial cells of forming cell cords.
Furthermore, in order to evaluate the inhibitory effect, rhsCD154 (100 ng/ml) was pre-incubated for 15 minutes at 37° C. with peptide 4.10 (SEQ. ID NO: 6), or with control peptide 4.10-ala (SEQ. ID NO: 8), or with a blocking anti-human CD154 antibody. The flasks were then observed at 10× magnification for a period of 4 hours under a phase contrast inverted microscope equipped with a thermostatic chamber (at about 37° C.). The cells were photographed with a camera connected to the microscope, over the whole length of time of 4 hours at regular intervals of 15 minutes each. The migratory speed of each of the cells was calculated based on the position of the nucleus of each single cell in each single frame, using an image analysis software and, as a result, the average cell migratory speed (1 standard deviation) was calculated for each experimental condition. […] As a further confirmation of the ability of peptide 4.10 to prevent human endothelial CD40 stimulation by rhsCD154 (100 ng/ml), HUVECs (3.5×10^4) were subjected to an in vitro angiogenesis assay. HUVECs were plated on a tumor matrix (Matrigel, BD) capable of promoting the formation of super cellular organization, in a basal RPMI medium supplemented with 5% serum. Upon incubation at 37° C. under 5% CO2 for 4 hours, the cells were observed under a contrast phase inverted microscope.

[7] = peptide 250 μM with rhsCD154 100 ng/ml

| Compound | binding to J558L CD154+ cells [2] | binding to control J558 cells [3] | further results |
| --- | --- | --- | --- |
| CSCC[C@@H]1NC(=O)[C@H](Cc2c[nH]cn2)NC(=O)[C@H](CCCNC(=N)N)NC(=O)[C@H]([C@@H](C)O)NC(=O)[C@@H]2CCCN2C(=O)[C@H](CC(C)C)NC(=O)[C@@H](N)CSSC[C@@H](C(=O)O)NC(=O)[C@H](C)NC1=O [peptide 4.10, CLPTRHMAC] (H-CLPTRHMAC-OH; disulfide 1-9) | – | – | platelet aggregation induced by ADP 0.5 μM after priming ([1]; priming 10 minutes at 37° C., peptide 60 μM with CD154): did not enhance platelet aggregation; activation of human platelet aggregation with thrombin at a subliminal dose ([1]; thrombin 0.3 U/ml): inactive |
| CGTHSSRIC (disulfide 1-9 (inferred)) [4.4] | capable of specifically binding | not capable of binding | – |
| CIPTRHMAC (binding protein) [4.101, modified form of peptide 4.10] | None of these peptides proved to be capable of binding | – | – |
| CIPTRHMVC (binding protein) [4.103, modified form of peptide 4.10] | None of these peptides proved to be capable of binding | – | – |
| CKAASANIC (disulfide 1-9 (inferred)) [4.8] | capable of specifically binding | not capable of binding | – |
| CLGTQNKEC (disulfide 1-9 (inferred)) [peptide 4.6] | capable of specifically binding | not capable of binding | competition with anti-human CD154 fluorescein-conjugated antibody specific for the active site of CD154 [4]: do not specifically bind to the active site; expression of CD80 compared to basal levels [5, 7]: 117%; expression of CD86 compared to basal levels [5, 7]: 122%; effect on rhsCD154-induced formation of vessel-like cell cords on Matrigel [6]: not capable of significantly reducing the stimulation of endothelial CD40 |
| CLPSRHMAC (binding protein) [4.102, modified form of peptide 4.10] | None of these peptides proved to be capable of binding | – | – |
| CLPTRWMAC (binding protein) [4.104, modified form of peptide 4.10] | None of these peptides proved to be capable of binding | – | – |
| CLSAVHNMC (disulfide 1-9 (inferred)) [peptide 4.11] | capable of specifically binding | not capable of binding | competition with anti-human CD154 fluorescein-conjugated antibody specific for the active site of CD154 [4]: do not specifically bind to the active site; inhibition of rhsCD154-induced B cell activation (CD80 and CD86 expression) ([5]; 250 μM): not stably reproducible; effect on rhsCD154-induced formation of vessel-like cell cords on Matrigel [6]: not capable of significantly reducing the stimulation of endothelial CD40 |
| CPSGHTKAC (disulfide 1-9 (inferred)) [4.2=4.3] | capable of specifically binding | not capable of binding | – |
| CTPGKPHSC (disulfide 1-9 (inferred)) [4.7=4.12] | capable of specifically binding | not capable of binding | – |
